Measurements from article PMC11413503, “SCR‐7952, a highly selective MAT2A inhibitor, demonstrates synergistic antitumor activities in combination with the S‐adenosylmethionine‐competitive or the methylthioadenosine‐cooperative protein arginine methyltransferase 5 inhibitors in methylthioadenosine phosphorylase‐deleted tumors” (MedComm, 2024).
pEC50, pIC50: −log10 of the molar value.

Key:
GR = GR (Homo sapiens, UniProt P04150); experiment: Mini-profiling panel, nuclear hormone receptor; type: cell-based; details: NHR Targets
[1] = test system: SAM levels in HCT116 MTAP−/− xenograft tumors and mice plasma; experiment: In vivo SAM measurement in tumors and plasma; details: 2 or 4 h post the final dose, low group, 16 days
Description: The concentration of SAM in plasma and tissue samples was determined using a UPLC–MS/MS method. For plasma samples, an aliquot of 20 µL plasma sample was added with 400 µL extraction buffer (1 M acetic acid in MeOH), then vortexed and centrifuged at 16,000 g for 5 min. The supernatant was treated as the homogenized tissue sample, and the sample dilution factor was 21. For tumor samples, the tumor tissues were homogenized with 9 volumes (v/w) of extraction buffer, then vortexed and centrifuged at 16,000 g for 5 min. The supernatant was treated as the homogenized tissue sample. An aliquot of 30 µL tissue sample was added with 600 µL extraction buffer, then vortexed and centrifuged at 16,000 g for 5 min. The total sample dilution factor is 210. An aliquot of 60 µL diluted samples, standards, or QCs was added with 400 µL extraction buffer with IS (SAM‐d 3, 50 ng/mL in extraction buffer). The mixture was vortexed at 250 g for 10 min and centrifuged at 16,000 g for 5 min. An aliquot of 4 µL supernatant was injected for UPLC–MS/MS analysis. The standard calibration curve was in a 1.0–300 ng/mL concentration range. UPLC–MS/MS method for SAM detection was performed as mentioned before.

HRH1 = HRH1 (Homo sapiens, UniProt P35367); experiment: Mini-profiling panel, GPCR; type: cell-based; details: GPCR Targets
MAT2A protein expression = experiment: Immunoblot of MAT2A protein expression; type: cell-based; details: 96 h, HCT116 MTAP−/− and WT cells
hERG = hERG (Homo sapiens, UniProt Q12809); experiment: Mini-profiling panel, ion channel; type: cell-based; details: Ion Channels; read-out: hERG Blocker IC50
LCK = LCK (Homo sapiens, UniProt P06239); experiment: Mini-profiling panel, kinase; type: biochemical; details: Kinases; read-out: LCK Inhibitor IC50
EDNRA = EDNRA (Homo sapiens, UniProt P25101); experiment: Mini-profiling panel, GPCR; type: cell-based; details: GPCR Targets
MAOA = MAOA (Homo sapiens, UniProt P21397); experiment: Mini-profiling panel, non-kinase enzyme; type: biochemical; details: Non-Kinase Enzymes; read-out: MAOA Inhibitor IC50
CCKAR = CCKAR (Homo sapiens, UniProt P32238); experiment: Mini-profiling panel, GPCR; type: cell-based; details: GPCR Targets
[2] = Plasma pharmacokinetics after multiple administration in xenograft mice; type: in vivo; details: SCR-7952 1.0 mg/kg
ADRB2 = ADRB2 (Homo sapiens, UniProt P07550); experiment: Mini-profiling panel, GPCR; type: cell-based; details: GPCR Targets
PDE3A = PDE3A (Homo sapiens, UniProt Q14432); experiment: Mini-profiling panel, non-kinase enzyme; type: biochemical; details: Non-Kinase Enzymes; read-out: PDE3A Inhibitor IC50
ADRB1 = ADRB1 (Homo sapiens, UniProt P08588); experiment: Mini-profiling panel, GPCR; type: cell-based; details: GPCR Targets
SDMA = experiment: Immunoblot of SDMA (PRMT5-dependent mark); type: cell-based; details: 96 h, HCT116 MTAP−/− cells
ADORA2A = ADORA2A (Homo sapiens, UniProt P29274); experiment: Mini-profiling panel, GPCR; type: cell-based; details: GPCR Targets
VEGFR2 = VEGFR2 (Homo sapiens, UniProt P35968); experiment: Mini-profiling panel, kinase; type: biochemical; details: Kinases; read-out: VEGFR2 Inhibitor IC50
DRD1 = DRD1 (Homo sapiens, UniProt P21728); experiment: Mini-profiling panel, GPCR; type: cell-based
Description: (§1) Further insight into selectivity was evaluated in a functional panel of 47 representative targets closely related to human life activities, including G protein‐coupled receptors, transporters, ion channels, kinases, nuclear hormone receptor targets, and nonkinase enzymes (Table S3).

HTR1B = HTR1B (Homo sapiens, UniProt P28222); experiment: Mini-profiling panel, GPCR; type: cell-based
Description: as §1

CNR1 = CNR1 (Homo sapiens, UniProt P21554); experiment: Mini-profiling panel, GPCR; type: cell-based
Description: as §1

CNR2 = CNR2 (Homo sapiens, UniProt P34972); experiment: Mini-profiling panel, GPCR; type: cell-based
Description: as §1

ROCK1 = ROCK1 (Homo sapiens, UniProt Q13464); experiment: Mini-profiling panel, kinase; type: biochemical; details: Kinases; read-out: ROCK1 Inhibitor IC50
AChE = AChE (Homo sapiens, UniProt P22303); experiment: Mini-profiling panel, non-kinase enzyme; type: biochemical; details: Non-Kinase Enzymes; read-out: AChE Inhibitor IC50
FANCA = experiment: RT-PCR of FANCA and DI-containing transcripts; type: cell-based; details: 72 h
AR = AR (Homo sapiens, UniProt P10275); experiment: Mini-profiling panel, nuclear hormone receptor; type: cell-based
Description: as §1

Sequence of AR (P10275 whole entry): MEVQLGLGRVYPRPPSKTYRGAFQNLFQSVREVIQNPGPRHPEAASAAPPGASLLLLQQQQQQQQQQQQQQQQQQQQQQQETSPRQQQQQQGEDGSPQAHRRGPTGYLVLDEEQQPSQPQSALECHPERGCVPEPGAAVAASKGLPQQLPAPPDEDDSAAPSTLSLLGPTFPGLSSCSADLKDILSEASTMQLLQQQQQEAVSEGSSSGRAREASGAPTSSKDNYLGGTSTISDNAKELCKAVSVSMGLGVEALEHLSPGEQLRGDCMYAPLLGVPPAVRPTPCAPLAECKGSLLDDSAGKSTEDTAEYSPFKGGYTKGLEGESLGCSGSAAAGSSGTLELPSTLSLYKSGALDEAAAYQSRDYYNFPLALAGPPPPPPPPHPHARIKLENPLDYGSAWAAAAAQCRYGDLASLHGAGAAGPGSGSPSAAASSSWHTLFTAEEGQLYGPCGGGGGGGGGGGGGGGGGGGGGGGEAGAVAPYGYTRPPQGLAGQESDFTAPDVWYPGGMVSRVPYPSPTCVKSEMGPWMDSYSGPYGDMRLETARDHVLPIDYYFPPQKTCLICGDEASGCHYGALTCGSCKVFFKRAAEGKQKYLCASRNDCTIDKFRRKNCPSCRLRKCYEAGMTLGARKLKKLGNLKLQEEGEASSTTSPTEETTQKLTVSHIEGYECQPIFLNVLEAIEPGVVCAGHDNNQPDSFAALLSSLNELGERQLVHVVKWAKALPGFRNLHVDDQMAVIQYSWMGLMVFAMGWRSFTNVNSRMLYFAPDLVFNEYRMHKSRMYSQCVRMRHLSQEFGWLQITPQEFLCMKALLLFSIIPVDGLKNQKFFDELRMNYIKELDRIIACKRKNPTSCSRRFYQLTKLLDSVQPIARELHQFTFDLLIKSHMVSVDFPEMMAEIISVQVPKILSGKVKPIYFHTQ
Sequence of HTR1B (P28222 whole entry, species assumed): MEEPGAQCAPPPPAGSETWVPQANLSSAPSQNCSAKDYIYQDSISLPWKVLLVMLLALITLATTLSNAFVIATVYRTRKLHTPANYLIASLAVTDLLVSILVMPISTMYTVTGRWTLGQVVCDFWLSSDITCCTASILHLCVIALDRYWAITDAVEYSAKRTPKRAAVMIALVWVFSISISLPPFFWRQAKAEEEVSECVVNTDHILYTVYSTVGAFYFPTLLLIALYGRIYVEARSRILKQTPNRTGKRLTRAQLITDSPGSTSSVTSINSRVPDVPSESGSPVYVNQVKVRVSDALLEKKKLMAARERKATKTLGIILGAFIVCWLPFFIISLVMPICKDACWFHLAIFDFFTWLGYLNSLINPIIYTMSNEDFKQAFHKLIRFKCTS
Sequence of ADORA2A (P29274 whole entry, species assumed): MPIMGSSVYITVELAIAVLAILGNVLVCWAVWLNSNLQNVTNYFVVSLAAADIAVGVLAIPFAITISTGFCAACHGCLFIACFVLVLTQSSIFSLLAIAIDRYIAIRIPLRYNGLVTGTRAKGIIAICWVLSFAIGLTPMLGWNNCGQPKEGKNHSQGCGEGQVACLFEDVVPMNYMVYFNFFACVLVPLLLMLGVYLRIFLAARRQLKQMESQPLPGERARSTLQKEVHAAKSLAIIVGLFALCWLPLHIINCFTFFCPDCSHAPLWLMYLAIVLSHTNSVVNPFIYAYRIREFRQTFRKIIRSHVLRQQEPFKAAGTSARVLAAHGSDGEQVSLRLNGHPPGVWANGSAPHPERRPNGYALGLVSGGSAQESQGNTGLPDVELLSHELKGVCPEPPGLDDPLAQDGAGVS
Sequence of CNR1 (P21554 whole entry, species assumed): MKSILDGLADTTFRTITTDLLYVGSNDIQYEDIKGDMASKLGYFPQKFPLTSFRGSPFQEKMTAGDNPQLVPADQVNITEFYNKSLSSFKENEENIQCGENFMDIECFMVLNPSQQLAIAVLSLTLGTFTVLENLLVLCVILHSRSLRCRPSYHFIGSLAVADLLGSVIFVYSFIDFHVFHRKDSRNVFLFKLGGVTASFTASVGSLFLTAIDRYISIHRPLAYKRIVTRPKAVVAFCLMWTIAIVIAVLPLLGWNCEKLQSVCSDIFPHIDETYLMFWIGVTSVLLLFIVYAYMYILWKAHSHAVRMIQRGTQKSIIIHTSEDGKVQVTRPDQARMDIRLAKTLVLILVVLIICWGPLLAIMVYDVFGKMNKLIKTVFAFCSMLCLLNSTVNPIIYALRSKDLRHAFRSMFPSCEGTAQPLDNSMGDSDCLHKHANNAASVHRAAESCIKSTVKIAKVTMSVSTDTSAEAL
Sequence of CNR2 (P34972 whole entry, species assumed): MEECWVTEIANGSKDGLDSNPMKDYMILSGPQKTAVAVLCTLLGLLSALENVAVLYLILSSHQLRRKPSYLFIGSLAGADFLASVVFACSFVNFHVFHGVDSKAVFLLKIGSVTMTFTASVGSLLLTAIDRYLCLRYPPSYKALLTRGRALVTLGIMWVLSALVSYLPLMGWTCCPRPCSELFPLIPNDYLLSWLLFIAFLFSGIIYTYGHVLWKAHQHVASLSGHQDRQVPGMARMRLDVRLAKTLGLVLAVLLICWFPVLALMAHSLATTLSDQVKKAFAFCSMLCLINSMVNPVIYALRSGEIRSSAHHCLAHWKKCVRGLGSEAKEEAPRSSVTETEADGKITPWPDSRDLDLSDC
Sequence of ADRB1 (P08588 whole entry, species assumed): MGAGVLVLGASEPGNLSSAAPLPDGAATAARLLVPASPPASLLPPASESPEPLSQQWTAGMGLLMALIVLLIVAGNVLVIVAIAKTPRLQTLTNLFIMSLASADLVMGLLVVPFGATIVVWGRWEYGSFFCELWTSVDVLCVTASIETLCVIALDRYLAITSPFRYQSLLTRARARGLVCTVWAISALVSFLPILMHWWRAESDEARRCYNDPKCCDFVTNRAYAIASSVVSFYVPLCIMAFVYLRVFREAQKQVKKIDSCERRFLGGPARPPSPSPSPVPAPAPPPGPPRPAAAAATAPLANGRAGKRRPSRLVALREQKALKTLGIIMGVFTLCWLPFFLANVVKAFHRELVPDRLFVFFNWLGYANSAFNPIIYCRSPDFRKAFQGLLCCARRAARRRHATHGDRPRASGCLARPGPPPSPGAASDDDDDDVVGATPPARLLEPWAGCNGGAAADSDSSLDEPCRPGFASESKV
Sequence of HRH1 (P35367 whole entry, species assumed): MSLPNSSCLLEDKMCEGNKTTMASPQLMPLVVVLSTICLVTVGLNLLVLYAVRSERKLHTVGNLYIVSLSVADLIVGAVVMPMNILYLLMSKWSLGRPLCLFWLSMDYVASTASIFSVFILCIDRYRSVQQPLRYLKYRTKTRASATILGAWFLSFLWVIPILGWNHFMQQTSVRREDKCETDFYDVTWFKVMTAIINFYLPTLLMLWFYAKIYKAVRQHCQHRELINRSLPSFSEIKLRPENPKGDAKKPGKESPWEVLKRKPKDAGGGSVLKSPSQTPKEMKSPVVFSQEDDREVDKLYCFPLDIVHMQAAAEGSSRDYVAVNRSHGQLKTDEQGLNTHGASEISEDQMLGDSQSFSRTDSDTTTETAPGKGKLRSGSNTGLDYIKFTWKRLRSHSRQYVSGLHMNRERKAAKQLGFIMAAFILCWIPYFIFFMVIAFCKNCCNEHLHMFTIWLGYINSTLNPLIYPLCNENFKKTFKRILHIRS
Sequence of DRD1 (P21728 whole entry, species assumed): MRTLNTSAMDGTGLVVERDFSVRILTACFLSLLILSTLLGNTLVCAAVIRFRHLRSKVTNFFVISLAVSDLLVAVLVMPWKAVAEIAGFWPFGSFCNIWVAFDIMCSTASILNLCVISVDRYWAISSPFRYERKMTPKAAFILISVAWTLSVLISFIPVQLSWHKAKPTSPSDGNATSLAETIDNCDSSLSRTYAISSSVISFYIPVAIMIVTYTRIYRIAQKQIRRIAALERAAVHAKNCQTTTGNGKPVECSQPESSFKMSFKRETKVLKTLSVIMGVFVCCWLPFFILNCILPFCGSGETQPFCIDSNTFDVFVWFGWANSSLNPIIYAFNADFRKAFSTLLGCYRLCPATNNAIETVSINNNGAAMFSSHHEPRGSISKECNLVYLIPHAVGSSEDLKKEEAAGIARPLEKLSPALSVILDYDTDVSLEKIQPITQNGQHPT
Sequence of EDNRA (P25101 21-427, species assumed): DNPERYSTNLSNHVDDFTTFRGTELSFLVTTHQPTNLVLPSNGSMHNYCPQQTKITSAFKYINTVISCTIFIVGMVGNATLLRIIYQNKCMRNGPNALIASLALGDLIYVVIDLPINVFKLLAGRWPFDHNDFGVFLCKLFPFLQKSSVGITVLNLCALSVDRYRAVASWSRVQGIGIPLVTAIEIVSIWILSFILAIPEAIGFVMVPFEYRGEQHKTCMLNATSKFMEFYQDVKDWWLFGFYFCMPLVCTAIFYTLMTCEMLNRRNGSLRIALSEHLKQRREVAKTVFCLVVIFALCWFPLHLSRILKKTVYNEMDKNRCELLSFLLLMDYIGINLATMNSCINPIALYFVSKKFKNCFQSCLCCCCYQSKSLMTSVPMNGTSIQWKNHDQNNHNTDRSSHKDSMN
Sequence of ADRB2 (P07550 whole entry, species assumed): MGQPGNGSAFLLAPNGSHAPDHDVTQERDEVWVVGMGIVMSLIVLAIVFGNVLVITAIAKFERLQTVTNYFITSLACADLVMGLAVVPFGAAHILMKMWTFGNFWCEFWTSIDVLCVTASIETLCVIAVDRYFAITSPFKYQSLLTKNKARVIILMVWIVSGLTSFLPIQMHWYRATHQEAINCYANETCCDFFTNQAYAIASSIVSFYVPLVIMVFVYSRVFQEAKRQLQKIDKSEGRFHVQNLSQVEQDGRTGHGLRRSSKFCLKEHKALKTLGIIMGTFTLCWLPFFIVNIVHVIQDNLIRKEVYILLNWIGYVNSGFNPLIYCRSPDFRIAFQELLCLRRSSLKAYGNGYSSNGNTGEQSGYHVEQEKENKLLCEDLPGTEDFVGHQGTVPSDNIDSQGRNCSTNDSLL

Cn1cnc2c(=O)n(-c3cccnc3C3CC3)c3cc(Cl)ccc3c21 [SCR‐7952, 7‐chloro‐5‐(2‐cyclopropylpyridin‐3‐yl)‐1‐methyl‐1,5‐dihydro‐4H‐imidazo[4,5‐c]quinolin‐4‐one]
Significant dose‐dependent reduction: SDMA level (immunoblot) (SDMA)
15800 ng·h/mL: AUC(0-t) ([2]; Nu/Nu, mouse, oral, plasma, HCT116 MTAP−/− xenograft mice, read-out: AUC0-24h total)
< 5.00: pEC50 (GR; read-out: GR Agonism EC50) | pIC50 (GR; read-out: GR Antagonism IC50) | pEC50 (HRH1; read-out: HRH1 Agonism EC50) | pIC50 (HRH1; read-out: HRH1 Antagonism IC50) | pIC50 (hERG) | pIC50 (LCK) | pEC50 (EDNRA; read-out: EDNRA Agonism EC50) | pIC50 (EDNRA; read-out: EDNRA Antagonism IC50) | pIC50 (MAOA) | pEC50 (CCKAR; read-out: CCKAR Agonism EC50) | pIC50 (CCKAR; read-out: CCKAR Antagonism IC50) | pEC50 (ADRB2; read-out: ADRB2 Agonism EC50) | pIC50 (ADRB2; read-out: ADRB2 Antagonism IC50) | pIC50 (PDE3A) | pEC50 (ADRB1; read-out: ADRB1 Agonism EC50) | pIC50 (ADRB1; read-out: ADRB1 Antagonism IC50) | pEC50 (ADORA2A; read-out: ADORA2A Agonism EC50) | pIC50 (ADORA2A; read-out: ADORA2A Antagonism IC50) | pIC50 (VEGFR2) | pEC50 (DRD1) | pIC50 (DRD1) | pEC50 (HTR1B) | pIC50 (HTR1B) | pEC50 (CNR1) | pIC50 (CNR1) | pEC50 (CNR2) | pIC50 (CNR2) | pIC50 (ROCK1) | pIC50 (AChE) | pEC50 (AR) | pIC50 (AR)
1442 ng·h/mL: AUC0-24h free drug ([2]; calculated)
significantly upregulated: expression of FANCA DI-containing transcripts (FANCA)
53.56–68.72%: inhibition of SAM levels in tumors and plasma [1]
reduced: total levels of FANCA mRNA (FANCA)
upregulated: expression of MAT2A protein (MAT2A protein expression)
